Test results from patent US11590139B2, “Substituted aminopurine compounds, compositions thereof, and methods of treatment therewith” (Signal Pharmaceuticals, LLC, priority 2014, dated 2023).
pIC50: −log10 of the molar value.

test system: Lox-IMVI melanoma cell line; assay: Lox-IMVI anti-proliferative assay (growth inhibition, Cell Titer-Glo); assay type: cell-based, human; settings: Homo sapiens; IC50 activity level in the cell-based Lox-IMVI anti-proliferative assay; read-out: Activity
Method in brief: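 Viability read by ATP luminescence (Cell Titer-Glo) at t0 and after 72 h at 37 °C, 5% CO2, with normalisation to DMSO-treated cells. Compound tested at 0.5 nM–10 μM in 3-fold, 10-point series (0.2% DMSO final) on Lox-IMVI in RPMI+10% FBS; IC50 by 4-parameter sigmoidal fit.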

SMILES | pIC50
NC(=O)[C@H]1CC[C@@H](n2c(Nc3c(F)cc(F)cc3F)nc3cnc(N[C@@H]4CCOC[C@H]4F)nc32)CC1 [Example 276, (1S,4s)-4-(2-((3S,4R)-3-fluorotetrahydro-2H-pyran-4-ylamino)-8-(2,4,6-trifluorophenylamino)-9H-purin-9-yl)cyclohexanecarboxamide] | > 6.60
NC(=O)[C@H]1CC[C@@H](n2c(Nc3c(F)cc(F)cc3F)nc3cnc(N[C@H]4CCOC[C@@H]4F)nc32)CC1 [Example 277, (1R,4s)-4-(2-((3R,4S)-3-fluorotetrahydro-2H-pyran-4-ylamino)-8-(2,4,6-trifluorophenylamino)-9H-purin-9-yl)cyclohexanecarboxamide] | < 6.00
N#Cc1cc(Cl)c(Nc2nc3cnc(NC4CCOCC4)nc3n2[C@H]2CC[C@@H](C(N)=O)CC2)c(Cl)c1 [Example 278, (1s,4s)-4-(8-(2,6-dichloro-4-cyanophenylamino)-2-(tetrahydro-2H-pyran-4-ylamino)-9H-purin-9-yl)cyclohexanecarboxamide] | > 6.60
NC(=O)[C@H]1CC[C@@H](n2c(Nc3c(F)cc(F)cc3F)nc3cnc(N[C@H]4C[C@H](O)C4)nc32)CC1 [Example 279, (1s,4s)-4-(2-((1r,3r)-3-hydroxycyclobutylamino)-8-(2,4,6-trifluorophenylamino)-9H-purin-9-yl)cyclohexanecarboxamide] | < 6.00
NC(=O)[C@H]1CC[C@@H](n2c(Nc3c(Cl)cccc3Cl)nc3cnc(N[C@H]4C[C@H](O)C4)nc32)CC1 [Example 280, (1s,4s)-4-(8-(2,6-dichlorophenylamino)-2-((1r,3r)-3-hydroxycyclobutylamino)-9H-purin-9-yl)cyclohexanecarboxamide] | < 6.00
NC(=O)[C@H]1CC[C@@H](n2c(Nc3c(F)cccc3Cl)nc3cnc(N[C@H]4C[C@H](O)C4)nc32)CC1 [Example 281, (1s,4s)-4-(8-(2-chloro-6-fluorophenylamino)-2-((1R,3r)-3-hydroxycyclobutylamino)-9H-purin-9-yl)cyclohexanecarboxamide] | < 6.00
NC(=O)[C@H]1CC[C@@H](n2c(Nc3c(F)cc(F)cc3Cl)nc3cnc(N[C@H]4C[C@H](O)C4)nc32)CC1 [Example 282, (1s,4s)-4-(8-(2-chloro-4,6-difluorophenylamino)-2-((1R,3r)-3-hydroxycyclobutylamino)-9H-purin-9-yl)cyclohexanecarboxamide] | < 6.00
NC(=O)[C@H]1CC[C@@H](n2c(Nc3c(F)cc(Cl)cc3F)nc3cnc(N[C@H]4C[C@H](O)C4)nc32)CC1 [Example 283, (1s,4s)-4-(8-(4-chloro-2,6-difluorophenylamino)-2-((1r,3r)-3-hydroxycyclobutylamino)-9H-purin-9-yl)cyclohexanecarboxamide] | < 6.00
NC(=O)[C@H]1CC[C@@H](n2c(Nc3c(Cl)cc(F)cc3Cl)nc3cnc(N[C@H]4C[C@H](O)C4)nc32)CC1 [Example 284, (1s,4s)-4-(8-(2,6-dichloro-4-fluorophenylamino)-2-((1r,3r)-3-hydroxycyclobutylamino)-9H-purin-9-yl)cyclohexanecarboxamide] | < 6.00
NC(=O)[C@H]1CC[C@@H](n2c(Nc3ccc(Cl)c(F)c3F)nc3cnc(N[C@H]4C[C@H](O)C4)nc32)CC1 [Example 285, (1s,4s)-4-(8-(4-chloro-2,3-difluorophenylamino)-2-((1R,3r)-3-hydroxycyclobutylamino)-9H-purin-9-yl)cyclohexanecarboxamide] | < 6.00
NC(=O)[C@H]1CC[C@@H](n2c(Nc3c(F)ccc(Cl)c3F)nc3cnc(N[C@H]4C[C@H](O)C4)nc32)CC1 [Example 286, (1s,4s)-4-(8-(3-chloro-2,6-difluorophenylamino)-2-((1r,3r)-3-hydroxycyclobutylamino)-9H-purin-9-yl)cyclohexanecarboxamide] | < 6.00
NC(=O)[C@H]1CC[C@@H](n2c(Nc3cc(F)cc(Cl)c3F)nc3cnc(N[C@H]4C[C@H](O)C4)nc32)CC1 [Example 287, (1s,4s)-4-(8-(3-chloro-2,5-difluorophenylamino)-2-((1R,3r)-3-hydroxycyclobutylamino)-9H-purin-9-yl)cyclohexanecarboxamide] | < 6.00
NC(=O)[C@H]1CC[C@@H](n2c(Nc3c(F)cc(F)cc3F)nc3cnc(NC4CCC(F)(F)CC4)nc32)CC1 [Example 288, (1s,4s)-4-(2-(4,4-difluorocyclohexylamino)-8-(2,4,6-trifluorophenylamino)-9H-purin-9-yl)cyclohexanecarboxamide] | 6.30 to 6.60
NC(=O)[C@H]1CC[C@@H](n2c(Nc3c(F)cccc3F)nc3cnc(NC4CCC(F)(F)CC4)nc32)CC1 [Example 289, (1s,4s)-4-(2-(4,4-difluorocyclohexylamino)-8-(2,6-difluorophenylamino)-9H-purin-9-yl)cyclohexanecarboxamide] | < 6.00
NC(=O)[C@H]1CC[C@@H](n2c(Nc3ccc(Cl)c(F)c3F)nc3cnc(NC4CCC(F)(F)CC4)nc32)CC1 [Example 290, (1s,4s)-4-(8-(4-chloro-2,3-difluorophenylamino)-2-(4,4-difluorocyclohexylamino)-9H-purin-9-yl)cyclohexanecarboxamide] | 6.00 to 6.30
NC(=O)[C@H]1CC[C@@H](n2c(Nc3c(F)ccc(Cl)c3F)nc3cnc(NC4CCC(F)(F)CC4)nc32)CC1 [Example 291, (1s,4s)-4-(8-(3-chloro-2,6-difluorophenylamino)-2-(4,4-difluorocyclohexylamino)-9H-purin-9-yl)cyclohexanecarboxamide] | 6.00 to 6.30
CS(=O)(=O)N1CCC(Nc2ncc3nc(Nc4c(Cl)cc(Cl)cc4Cl)n([C@H]4CC[C@@H](C(N)=O)CC4)c3n2)CC1 [Example 292, (1s,4s)-4-(2-(1-(methylsulfonyl)piperidin-4-ylamino)-8-(2,4,6-trichlorophenylamino)-9H-purin-9-yl)cyclohexanecarboxamide] | 6.00 to 6.30
CS(=O)(=O)N1CCC(Nc2ncc3nc(Nc4c(Cl)cccc4Cl)n([C@H]4CC[C@@H](C(N)=O)CC4)c3n2)CC1 [Example 293, (1s,4s)-4-(8-(2,6-dichlorophenylamino)-2-(1-(methylsulfonyl)piperidin-4-ylamino)-9H-purin-9-yl)cyclohexanecarboxamide] | < 6.00
CS(=O)(=O)N1CCC(Nc2ncc3nc(Nc4c(F)cc(F)cc4Cl)n([C@H]4CC[C@@H](C(N)=O)CC4)c3n2)CC1 [Example 294, (1s,4s)-4-(8-(2-chloro-4,6-difluorophenylamino)-2-(1-(methylsulfonyl)piperidin-4-ylamino)-9H-purin-9-yl)cyclohexanecarboxamide] | < 6.00
CS(=O)(=O)N1CCC(Nc2ncc3nc(Nc4c(F)cc(Cl)cc4F)n([C@H]4CC[C@@H](C(N)=O)CC4)c3n2)CC1 [Example 295, (1s,4s)-4-(8-(4-chloro-2,6-difluorophenylamino)-2-(1-(methylsulfonyl)piperidin-4-ylamino)-9H-purin-9-yl)cyclohexanecarboxamide] | < 6.00
CS(=O)(=O)N1CCC(Nc2ncc3nc(Nc4c(F)cc(Cl)cc4Cl)n([C@H]4CC[C@@H](C(N)=O)CC4)c3n2)CC1 [Example 296, (1s,4s)-4-(8-(2,4-dichloro-6-fluorophenylamino)-2-(1-(methylsulfonyl)piperidin-4-ylamino)-9H-purin-9-yl)cyclohexanecarboxamide] | 6.00 to 6.30
CS(=O)(=O)N1CCC(Nc2ncc3nc(Nc4c(Cl)cc(F)cc4Cl)n([C@H]4CC[C@@H](C(N)=O)CC4)c3n2)CC1 [Example 297, (1s,4s)-4-(8-(2,6-dichloro-4-fluorophenylamino)-2-(1-(methylsulfonyl)piperidin-4-ylamino)-9H-purin-9-yl)cyclohexanecarboxamide] | < 6.00
CS(=O)(=O)N1CCC(Nc2ncc3nc(Nc4ccc(Cl)c(F)c4F)n([C@H]4CC[C@@H](C(N)=O)CC4)c3n2)CC1 [Example 298, (1s,4s)-4-(8-(4-chloro-2,3-difluorophenylamino)-2-(1-(methylsulfonyl)piperidin-4-ylamino)-9H-purin-9-yl)cyclohexanecarboxamide] | < 6.00
CS(=O)(=O)N1CCC(Nc2ncc3nc(Nc4ccc(Cl)cc4Cl)n([C@H]4CC[C@@H](C(N)=O)CC4)c3n2)CC1 [Example 299, (1s,4s)-4-(8-(2,4-dichlorophenylamino)-2-(1-(methylsulfonyl)piperidin-4-ylamino)-9H-purin-9-yl)cyclohexanecarboxamide] | < 6.00
NC(=O)[C@H]1CC[C@@H](n2c(Nc3c(Cl)cc(Cl)cc3Cl)nc3cnc(N[C@H]4C[C@H](O)C4)nc32)CC1 [Example 300, (1s,4s)-4-(2-((1r,3r)-3-hydroxycyclobutylamino)-8-(2,4,6-trichlorophenylamino)-9H-purin-9-yl)cyclohexanecarboxamide] | 6.00 to 6.30
NC(=O)[C@H]1CC[C@@H](n2c(Nc3c(F)cc(Cl)cc3Cl)nc3cnc(N[C@H]4C[C@H](O)C4)nc32)CC1 [Example 301, (1s,4s)-4-(8-(2,4-dichloro-6-fluorophenylamino)-2-((1r,3r)-3-hydroxycyclobutylamino)-9H-purin-9-yl)cyclohexanecarboxamide] | 6.00 to 6.30
NC(=O)[C@H]1CC[C@@H](n2c(Nc3c(Cl)cc(Cl)cc3Cl)nc3cnc(N[C@@H]4CCOC[C@@H]4F)nc32)CC1 [Example 302, (1S,4s)-4-(2-((3R,4R)-3-fluorotetrahydro-2H-pyran-4-ylamino)-8-(2,4,6-trichlorophenylamino)-9H-purin-9-yl)cyclohexanecarboxamide] | 6.00 to 6.30
NC(=O)[C@H]1CC[C@@H](n2c(Nc3c(Cl)cc(Cl)cc3Cl)nc3cnc(N[C@H]4CCOC[C@H]4F)nc32)CC1 [Example 303, (1R,4s)-4-(2-((3S,4S)-3-fluorotetrahydro-2H-pyran-4-ylamino)-8-(2,4,6-trichlorophenylamino)-9H-purin-9-yl)cyclohexanecarboxamide] | > 6.60
NC(=O)[C@H]1CC[C@@H](n2c(Nc3c(F)cccc3F)nc3cnc(N[C@@H]4CCOC[C@@H]4F)nc32)CC1 [Example 304, (1S,4s)-4-(8-(2,6-difluorophenylamino)-2-((3R,4R)-3-fluorotetrahydro-2H-pyran-4-ylamino)-9H-purin-9-yl)cyclohexanecarboxamide] | < 6.00
